Data set [1] in a line: Drug absorption in po dosed human. In kind it is ADME, organism-based. The note with it: in vivo, read-out: Drug absorption.
A short description of data set [2]: Oral bioavailability in human. In kind it is ADME, organism-based. The note with it: in vivo.
Data set [3] is described as follows: Terminal half life in po dosed human. Conditions: in vivo.
Data set [4] in a line: Drug excretion in po dosed human. The note with it: in vivo.
Data set [5] can be described thus: Half life in po dosed human plasma. The data set is classed as ADME, organism-based.
A short description of data set [6]: Half life in im dosed human plasma. In kind it is ADME, organism-based.
The nature of data set [7]: Half life in iv dosed human plasma. The data set is classed as ADME, organism-based.
Data set [8] is described as follows: Tmax in human at 9.75 mg, im administered as single dose. In kind it is ADME, organism-based. The note with it: in vivo.

A word on the bioavailability: it is the share of a dose that reaches the circulation, judged against a reference dose that is usually intravenous. A lower bioavailability goes with poor availability. As for `CN1CCN(C2=Nc3cc(Cl)ccc3Nc3ccccc32)CC1` [CLOZAPINE], the Fa in data set [1] lay in the range of 90 to 95%. Besides, in data set [2], the bioavailability is 50 to 60%.

In general, half-life refers to the time in which the quantity being followed falls by half. A high value points to slow loss. Compound `OCCOCCN1CCN(C2=Nc3ccccc3Sc3ccccc32)CC1` [QUETIAPINE] gave a half-life in data set [3] of 6 h. This compound displayed a dose excreted in data set [4] of under 1%.

With `O=C(CCCN1CCC(O)(c2ccc(Cl)cc2)CC1)c1ccc(F)cc1` [HALOPERIDOL], the half-life in data set [5] is 24 h; in data set [6], 21 h; in data set [7], 14 h.

For `O=C1[C@@H]2[C@H]3CC[C@H](C3)[C@@H]2C(=O)N1C[C@@H]1CCCC[C@H]1CN1CCN(c2nsc3ccccc23)CC1` [LURASIDONE], the Fa in data set [1] was 9 to 19%.

As a reminder, the Tmax is the time at which the peak concentration occurs. In the case of `O=C1CCc2ccc(OCCCCN3CCN(c4cccc(Cl)c4Cl)CC3)cc2N1` [ARIPIPRAZOLE], in data set [8], the Tmax turned out to be 3 h.

Values taken from ChEMBL document CHEMBL4257461, “Schizophrenia: synthetic strategies and recent advances in drug design” (Medchemcomm, 2018).
